Source: PubChem BioAssay (NCI)
Several values for one entry are separate records, joined by “and”; a condition that tells them apart may be missing. Equal values may be shown once.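 Step 1: Grow cells in 96-well plates. Step 2: Expose to compound for 48 hours at 5 concentrations. Step 3: Interpolate endpoints linearly; if unreached, use highest concentration. The concentration for 50% growth inhibition is given as GI50. TGI denotes the concentration required for complete inhibition of growth.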

Tests used:
Test in all cases: NCI tumour cell line growth inhibition, 48 h
786-0 renal = system: 786-0 renal
A498 renal = system: A498 renal
A549 NSCLC = system: A549 NSCLC
ACHN renal = system: ACHN renal
BT-549 breast = system: BT-549 breast
CAKI-1 renal = system: CAKI-1 renal
CCRF-CEM leukemia = system: CCRF-CEM leukemia
COLO 205 colon = system: COLO 205 colon
DU-145 prostate = system: DU-145 prostate
EKVX NSCLC = system: EKVX NSCLC
HCC-2998 colon = system: HCC-2998 colon
HCT-116 colon = system: HCT-116 colon
HCT-15 colon = system: HCT-15 colon
HL-60(TB) leukemia = system: HL-60(TB) leukemia
HOP-62 NSCLC = system: HOP-62 NSCLC
HOP-92 NSCLC = system: HOP-92 NSCLC
HS 578T breast = system: HS 578T breast
HT29 colon = system: HT29 colon
IGROV1 ovarian = system: IGROV1 ovarian
K-562 leukemia = system: K-562 leukemia
KM12 colon = system: KM12 colon
LOX IMVI melanoma = system: LOX IMVI melanoma
M14 melanoma = system: M14 melanoma
MALME-3M melanoma = system: MALME-3M melanoma
MCF7 breast = system: MCF7 breast
MDA-MB-231 breast = system: MDA-MB-231 breast
MDA-MB-435 = system: MDA-MB-435
MOLT-4 leukemia = system: MOLT-4 leukemia
NCI-H226 lung = system: NCI-H226 lung
NCI-H23 lung = system: NCI-H23 lung
NCI-H460 lung = system: NCI-H460 lung
NCI-H522 lung = system: NCI-H522 lung
NCI/ADR-RES ovarian = system: NCI/ADR-RES ovarian
OVCAR-3 ovarian = system: OVCAR-3 ovarian
OVCAR-4 ovarian = system: OVCAR-4 ovarian
OVCAR-5 ovarian = system: OVCAR-5 ovarian
OVCAR-8 ovarian = system: OVCAR-8 ovarian
PC-3 prostate = system: PC-3 prostate
RPMI-8226 leukemia = system: RPMI-8226 leukemia
RXF 393 renal = system: RXF 393 renal
SF-268 CNS = system: SF-268 CNS
SF-295 CNS = system: SF-295 CNS
SF-539 CNS = system: SF-539 CNS
SK-MEL-2 melanoma = system: SK-MEL-2 melanoma
SK-MEL-28 melanoma = system: SK-MEL-28 melanoma
SK-MEL-5 melanoma = system: SK-MEL-5 melanoma
SK-OV-3 ovarian = system: SK-OV-3 ovarian
SN12C renal = system: SN12C renal
SNB-19 CNS = system: SNB-19 CNS
SNB-75 CNS = system: SNB-75 CNS
SR leukemia = system: SR leukemia
SW-620 colon = system: SW-620 colon
T-47D breast = system: T-47D breast
TK-10 renal = system: TK-10 renal
U251 CNS = system: U251 CNS
UACC-257 melanoma = system: UACC-257 melanoma
UACC-62 melanoma = system: UACC-62 melanoma
UO-31 renal = system: UO-31 renal

Compound: CC(C)(C)NC(=O)[C@H]1CC[C@H]2[C@@H]3CC[C@H]4NC(=O)C=C[C@]4(C)[C@H]3CC[C@]12C
- GI50 (786-0 renal): > 100 µM
- TGI (786-0 renal): > 100 µM
- GI50 (A498 renal): 54.2 µM
- TGI (A498 renal): > 100 µM
- GI50 (A549 NSCLC): > 100 µM
- TGI (A549 NSCLC): > 100 µM
- GI50 (ACHN renal): > 100 µM
- TGI (ACHN renal): > 100 µM
- GI50 (BT-549 breast): 81.9 µM and > 100 µM
- TGI (BT-549 breast): > 100 µM
- GI50 (CAKI-1 renal): 77.9 µM and > 100 µM
- TGI (CAKI-1 renal): > 100 µM
- GI50 (CCRF-CEM leukemia): 84.2 µM and > 100 µM
- TGI (CCRF-CEM leukemia): > 100 µM
- GI50 (COLO 205 colon): > 100 µM
- TGI (COLO 205 colon): > 100 µM
- GI50 (DU-145 prostate): > 100 µM
- TGI (DU-145 prostate): > 100 µM
- GI50 (EKVX NSCLC): 70.1 µM and > 100 µM
- TGI (EKVX NSCLC): > 100 µM
- GI50 (HCC-2998 colon): > 100 µM
- TGI (HCC-2998 colon): > 100 µM
- GI50 (HCT-116 colon): > 100 µM
- TGI (HCT-116 colon): > 100 µM
- GI50 (HCT-15 colon): > 100 µM
- TGI (HCT-15 colon): > 100 µM
- GI50 (HL-60(TB) leukemia): 41.6 µM and > 100 µM
- TGI (HL-60(TB) leukemia): > 100 µM
- GI50 (HOP-62 NSCLC): > 100 µM
- TGI (HOP-62 NSCLC): > 100 µM
- GI50 (HOP-92 NSCLC): 30.3 µM
- TGI (HOP-92 NSCLC): > 100 µM
- GI50 (HS 578T breast): > 100 µM
- TGI (HS 578T breast): > 100 µM
- GI50 (HT29 colon): 44.9 µM and 69.6 µM
- TGI (HT29 colon): > 100 µM
- GI50 (IGROV1 ovarian): > 100 µM
- TGI (IGROV1 ovarian): > 100 µM
- GI50 (K-562 leukemia): 53.5 µM and > 100 µM
- TGI (K-562 leukemia): > 100 µM
- GI50 (KM12 colon): > 100 µM
- TGI (KM12 colon): > 100 µM
- GI50 (LOX IMVI melanoma): > 100 µM
- TGI (LOX IMVI melanoma): > 100 µM
- GI50 (M14 melanoma): > 100 µM
- TGI (M14 melanoma): > 100 µM
- GI50 (MALME-3M melanoma): 74.5 µM and > 100 µM
- TGI (MALME-3M melanoma): > 100 µM
- GI50 (MCF7 breast): > 100 µM
- TGI (MCF7 breast): > 100 µM
- GI50 (MDA-MB-231 breast): > 100 µM
- TGI (MDA-MB-231 breast): > 100 µM
- GI50 (MDA-MB-435): > 100 µM
- TGI (MDA-MB-435): > 100 µM
- GI50 (MOLT-4 leukemia): 66 µM and > 100 µM
- TGI (MOLT-4 leukemia): > 100 µM
- GI50 (NCI-H226 lung): > 100 µM
- TGI (NCI-H226 lung): > 100 µM
- GI50 (NCI-H23 lung): > 100 µM
- TGI (NCI-H23 lung): > 100 µM
- GI50 (NCI-H460 lung): > 100 µM
- TGI (NCI-H460 lung): > 100 µM
- GI50 (NCI-H522 lung): 23.2 µM and > 100 µM
- TGI (NCI-H522 lung): > 100 µM
- GI50 (NCI/ADR-RES ovarian): > 100 µM
- TGI (NCI/ADR-RES ovarian): > 100 µM
- GI50 (OVCAR-3 ovarian): > 100 µM
- TGI (OVCAR-3 ovarian): > 100 µM
- GI50 (OVCAR-4 ovarian): > 100 µM
- TGI (OVCAR-4 ovarian): > 100 µM
- GI50 (OVCAR-5 ovarian): > 100 µM
- TGI (OVCAR-5 ovarian): > 100 µM
- GI50 (OVCAR-8 ovarian): > 100 µM
- TGI (OVCAR-8 ovarian): > 100 µM
- GI50 (PC-3 prostate): 61 µM and > 100 µM
- TGI (PC-3 prostate): > 100 µM
- GI50 (RPMI-8226 leukemia): 42.8 µM and 67.2 µM
- TGI (RPMI-8226 leukemia): > 100 µM
- GI50 (RXF 393 renal): > 100 µM
- TGI (RXF 393 renal): > 100 µM
- GI50 (SF-268 CNS): > 100 µM
- TGI (SF-268 CNS): > 100 µM
- GI50 (SF-295 CNS): > 100 µM
- TGI (SF-295 CNS): > 100 µM
- GI50 (SF-539 CNS): > 100 µM
- TGI (SF-539 CNS): > 100 µM
- TGI (SK-MEL-2 melanoma): > 100 µM
- GI50 (SK-MEL-28 melanoma): > 100 µM
- TGI (SK-MEL-28 melanoma): > 100 µM
- GI50 (SK-MEL-5 melanoma): 43.1 µM and > 100 µM
- TGI (SK-MEL-5 melanoma): > 100 µM
- GI50 (SK-OV-3 ovarian): > 100 µM
- TGI (SK-OV-3 ovarian): > 100 µM
- GI50 (SN12C renal): > 100 µM
- TGI (SN12C renal): > 100 µM
- GI50 (SNB-19 CNS): > 100 µM
- TGI (SNB-19 CNS): > 100 µM
- GI50 (SNB-75 CNS): > 100 µM
- TGI (SNB-75 CNS): > 100 µM
- GI50 (SR leukemia): > 100 µM
- TGI (SR leukemia): > 100 µM
- GI50 (SW-620 colon): > 100 µM
- TGI (SW-620 colon): > 100 µM
- GI50 (T-47D breast): > 100 µM and 67.2 µM
- TGI (T-47D breast): > 100 µM
- GI50 (TK-10 renal): > 100 µM
- TGI (TK-10 renal): > 100 µM
- GI50 (U251 CNS): > 100 µM
- TGI (U251 CNS): > 100 µM
- GI50 (UACC-257 melanoma): 48.3 µM and > 100 µM
- TGI (UACC-257 melanoma): > 100 µM
- GI50 (UACC-62 melanoma): > 100 µM
- TGI (UACC-62 melanoma): > 100 µM
- GI50 (UO-31 renal): 71.1 µM and > 100 µM
- TGI (UO-31 renal): > 100 µM
